How the values were obtained:
[1] = target: T1, IKZF3 (Homo sapiens, UniProt Q96SW2+Q9UKT9); assay: Western-blot assay, substrate protein degradation in hPBMCs: IKZF3; type: cell-based; details: compounds at 50 nM and 500 nM, 24 hours
T1 construct: effects of the compounds of the present disclosure on the expression of target proteins in cells; endogenous in cells; host or cells: human PBMCs (hPBMCs)

[2] = target: T2, WEE1 (Homo sapiens, UniProt P30291+Q96SW2); assay: Western-blot assay, substrate protein degradation in hPBMCs: WEE1; type: cell-based; details: compounds at 50 nM and 500 nM, 24 hours
T2 construct: effects of the compounds of the present disclosure on the expression of target proteins in cells; endogenous in cells; host or cells: human PBMCs (hPBMCs)
T2 sequence (P30291 whole entry): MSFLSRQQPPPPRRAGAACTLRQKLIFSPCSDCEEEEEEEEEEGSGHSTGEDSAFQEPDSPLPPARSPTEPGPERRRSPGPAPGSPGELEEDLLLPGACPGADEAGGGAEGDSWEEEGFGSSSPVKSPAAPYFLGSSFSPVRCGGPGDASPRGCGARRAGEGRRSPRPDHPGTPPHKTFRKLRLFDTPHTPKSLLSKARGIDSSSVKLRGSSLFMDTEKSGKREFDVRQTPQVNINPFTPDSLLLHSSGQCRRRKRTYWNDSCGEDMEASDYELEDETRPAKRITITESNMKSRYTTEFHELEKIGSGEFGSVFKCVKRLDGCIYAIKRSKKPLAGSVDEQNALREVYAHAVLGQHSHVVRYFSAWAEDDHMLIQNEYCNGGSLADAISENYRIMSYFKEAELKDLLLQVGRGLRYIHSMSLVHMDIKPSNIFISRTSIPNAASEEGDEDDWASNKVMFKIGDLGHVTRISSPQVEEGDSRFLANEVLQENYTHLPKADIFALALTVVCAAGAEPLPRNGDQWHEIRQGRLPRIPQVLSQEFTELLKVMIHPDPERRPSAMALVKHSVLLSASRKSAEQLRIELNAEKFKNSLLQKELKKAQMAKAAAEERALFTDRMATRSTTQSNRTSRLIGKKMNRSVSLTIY
T2 sequence (Q96SW2 whole entry): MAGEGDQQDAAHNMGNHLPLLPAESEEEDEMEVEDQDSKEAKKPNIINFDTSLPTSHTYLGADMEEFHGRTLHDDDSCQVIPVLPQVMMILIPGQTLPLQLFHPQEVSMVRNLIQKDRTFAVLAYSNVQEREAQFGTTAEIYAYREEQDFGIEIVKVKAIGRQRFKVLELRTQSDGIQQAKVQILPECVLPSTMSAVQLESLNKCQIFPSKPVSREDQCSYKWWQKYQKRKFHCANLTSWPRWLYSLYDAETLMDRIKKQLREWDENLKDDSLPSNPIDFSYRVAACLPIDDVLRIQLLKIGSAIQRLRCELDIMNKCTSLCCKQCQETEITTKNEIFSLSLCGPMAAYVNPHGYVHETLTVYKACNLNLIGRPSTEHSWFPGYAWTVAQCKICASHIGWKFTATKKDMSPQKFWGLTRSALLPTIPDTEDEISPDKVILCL
T2 sequence (Q16531 whole entry partner): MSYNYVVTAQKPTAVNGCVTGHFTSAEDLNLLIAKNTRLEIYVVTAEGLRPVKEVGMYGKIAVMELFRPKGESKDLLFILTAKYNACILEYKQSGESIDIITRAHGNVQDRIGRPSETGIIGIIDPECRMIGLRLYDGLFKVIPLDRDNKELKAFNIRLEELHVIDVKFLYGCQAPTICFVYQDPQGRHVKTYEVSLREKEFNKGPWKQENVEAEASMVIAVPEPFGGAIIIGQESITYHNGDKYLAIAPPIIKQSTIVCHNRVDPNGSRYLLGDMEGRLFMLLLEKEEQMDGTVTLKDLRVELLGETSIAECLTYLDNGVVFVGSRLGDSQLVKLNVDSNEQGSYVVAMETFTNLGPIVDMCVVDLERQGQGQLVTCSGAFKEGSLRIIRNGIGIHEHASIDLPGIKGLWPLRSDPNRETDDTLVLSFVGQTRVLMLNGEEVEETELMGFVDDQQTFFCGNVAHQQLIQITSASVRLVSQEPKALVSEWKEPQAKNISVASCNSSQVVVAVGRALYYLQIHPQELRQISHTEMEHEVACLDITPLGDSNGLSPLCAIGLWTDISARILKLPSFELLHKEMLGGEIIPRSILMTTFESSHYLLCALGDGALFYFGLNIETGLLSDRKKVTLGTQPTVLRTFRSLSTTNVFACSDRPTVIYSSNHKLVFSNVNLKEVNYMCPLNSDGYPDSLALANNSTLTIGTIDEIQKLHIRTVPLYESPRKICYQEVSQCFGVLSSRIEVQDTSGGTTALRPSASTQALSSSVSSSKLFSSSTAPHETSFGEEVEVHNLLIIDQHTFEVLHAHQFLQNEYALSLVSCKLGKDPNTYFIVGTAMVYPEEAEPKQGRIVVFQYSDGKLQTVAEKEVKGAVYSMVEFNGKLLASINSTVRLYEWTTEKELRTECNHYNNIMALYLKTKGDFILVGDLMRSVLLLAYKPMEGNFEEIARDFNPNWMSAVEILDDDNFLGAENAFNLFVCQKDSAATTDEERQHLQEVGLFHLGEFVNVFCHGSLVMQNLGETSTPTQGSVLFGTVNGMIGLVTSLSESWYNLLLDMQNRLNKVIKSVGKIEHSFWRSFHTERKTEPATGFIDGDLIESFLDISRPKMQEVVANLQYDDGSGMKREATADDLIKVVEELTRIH

[3] = target: T3, IKZF2 (Homo sapiens, UniProt Q96SW2+Q9UKS7); assay: Western-blot assay, substrate protein degradation in hPBMCs: IKZF2; type: cell-based; details: compounds at 50 nM and 500 nM, 24 hours
T3 construct: effects of the compounds of the present disclosure on the expression of target proteins in cells; endogenous in cells; host or cells: human PBMCs (hPBMCs)
T3 sequence (Q9UKS7 whole entry): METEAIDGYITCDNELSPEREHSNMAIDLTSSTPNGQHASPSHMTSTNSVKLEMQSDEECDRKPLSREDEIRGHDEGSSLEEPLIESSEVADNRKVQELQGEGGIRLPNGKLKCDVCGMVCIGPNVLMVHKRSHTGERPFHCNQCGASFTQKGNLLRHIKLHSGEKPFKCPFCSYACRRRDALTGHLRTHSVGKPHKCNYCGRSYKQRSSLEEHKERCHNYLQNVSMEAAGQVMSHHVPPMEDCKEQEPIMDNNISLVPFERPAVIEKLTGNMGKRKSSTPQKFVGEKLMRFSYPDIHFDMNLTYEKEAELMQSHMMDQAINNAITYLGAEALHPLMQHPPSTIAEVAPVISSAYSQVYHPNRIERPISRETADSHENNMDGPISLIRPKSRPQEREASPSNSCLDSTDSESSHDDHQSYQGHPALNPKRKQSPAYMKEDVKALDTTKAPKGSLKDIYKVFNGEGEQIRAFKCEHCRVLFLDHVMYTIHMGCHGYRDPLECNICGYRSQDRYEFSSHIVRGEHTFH
T3 sequence (Q96SW2 whole entry): as the sequence (Q96SW2 whole entry) above
T3 sequence (Q16531 whole entry partner): as the sequence (Q16531 whole entry partner) above

[4] = target: T4, GSPT1 (Homo sapiens, UniProt P15170+Q96SW2); assay: Western-blot assay, substrate protein degradation in hPBMCs: GSPT1; type: cell-based; details: compounds at 50 nM and 500 nM, 24 hours
T4 construct: effects of the compounds of the present disclosure on the expression of target proteins in cells; endogenous in cells; host or cells: human PBMCs (hPBMCs)
T4 sequence (P15170 whole entry): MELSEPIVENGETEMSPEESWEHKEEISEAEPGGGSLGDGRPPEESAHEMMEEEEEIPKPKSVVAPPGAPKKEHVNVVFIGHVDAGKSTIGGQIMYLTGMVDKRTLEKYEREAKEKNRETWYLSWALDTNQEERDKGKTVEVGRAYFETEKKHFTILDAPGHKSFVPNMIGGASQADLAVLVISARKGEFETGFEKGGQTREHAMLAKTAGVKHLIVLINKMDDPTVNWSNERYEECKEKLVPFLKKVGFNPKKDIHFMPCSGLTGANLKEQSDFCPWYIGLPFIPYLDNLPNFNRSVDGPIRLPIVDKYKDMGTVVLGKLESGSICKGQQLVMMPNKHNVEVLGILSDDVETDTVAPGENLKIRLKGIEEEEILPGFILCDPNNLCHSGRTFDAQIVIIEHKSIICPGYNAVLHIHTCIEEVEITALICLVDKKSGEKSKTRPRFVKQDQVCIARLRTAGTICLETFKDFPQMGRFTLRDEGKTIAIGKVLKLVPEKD
T4 sequence (Q96SW2 whole entry): as the sequence (Q96SW2 whole entry) above
T4 sequence (Q16531 whole entry partner): as the sequence (Q16531 whole entry partner) above

[5] = system: MM.1S; assay: Cell viability assay (CellTiter-Meiluncell Luminescent), tumor cell proliferation, MM.1S; details: Homo sapiens, MM1.S, 96 h, read-out: inhibitory activity (IC50, nM) against tumor cells proliferation, MM.1S
[6] = target: T5, CK1α (Homo sapiens, UniProt P48729+Q96SW2); assay: Western-blot assay, substrate protein degradation in hPBMCs: CK1α; type: cell-based; details: compounds at 50 nM and 500 nM, 24 hours
T5 construct: effects of the compounds of the present disclosure on the expression of target proteins in cells; endogenous in cells; host or cells: human PBMCs (hPBMCs)

[7] = target: T6, IKZF1 (Homo sapiens, UniProt Q13422+Q96SW2); assay: Western-blot assay, substrate protein degradation in hPBMCs: IKZF1; type: cell-based; details: compounds at 50 nM and 500 nM, 24 hours
T6 construct: effects of the compounds of the present disclosure on the expression of target proteins in cells; endogenous in cells; host or cells: human PBMCs (hPBMCs)
T6 sequence (Q13422 whole entry): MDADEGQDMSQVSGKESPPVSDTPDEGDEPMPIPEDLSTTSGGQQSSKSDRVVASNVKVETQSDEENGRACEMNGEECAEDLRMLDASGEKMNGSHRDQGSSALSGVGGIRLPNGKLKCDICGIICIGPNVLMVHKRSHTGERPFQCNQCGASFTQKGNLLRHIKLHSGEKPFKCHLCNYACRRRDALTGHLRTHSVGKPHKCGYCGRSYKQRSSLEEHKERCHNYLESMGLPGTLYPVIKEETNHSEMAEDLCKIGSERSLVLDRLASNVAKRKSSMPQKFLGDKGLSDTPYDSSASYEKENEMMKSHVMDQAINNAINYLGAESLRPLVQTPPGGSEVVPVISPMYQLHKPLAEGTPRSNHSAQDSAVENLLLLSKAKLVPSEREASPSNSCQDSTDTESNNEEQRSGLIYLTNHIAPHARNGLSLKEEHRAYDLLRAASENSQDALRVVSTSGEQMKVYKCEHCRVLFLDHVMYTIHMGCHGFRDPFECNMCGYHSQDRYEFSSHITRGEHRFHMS
T6 sequence (Q96SW2 whole entry): as the sequence (Q96SW2 whole entry) above
T6 sequence (Q16531 whole entry partner): as the sequence (Q16531 whole entry partner) above

T1 sequence (Q9UKT9 whole entry): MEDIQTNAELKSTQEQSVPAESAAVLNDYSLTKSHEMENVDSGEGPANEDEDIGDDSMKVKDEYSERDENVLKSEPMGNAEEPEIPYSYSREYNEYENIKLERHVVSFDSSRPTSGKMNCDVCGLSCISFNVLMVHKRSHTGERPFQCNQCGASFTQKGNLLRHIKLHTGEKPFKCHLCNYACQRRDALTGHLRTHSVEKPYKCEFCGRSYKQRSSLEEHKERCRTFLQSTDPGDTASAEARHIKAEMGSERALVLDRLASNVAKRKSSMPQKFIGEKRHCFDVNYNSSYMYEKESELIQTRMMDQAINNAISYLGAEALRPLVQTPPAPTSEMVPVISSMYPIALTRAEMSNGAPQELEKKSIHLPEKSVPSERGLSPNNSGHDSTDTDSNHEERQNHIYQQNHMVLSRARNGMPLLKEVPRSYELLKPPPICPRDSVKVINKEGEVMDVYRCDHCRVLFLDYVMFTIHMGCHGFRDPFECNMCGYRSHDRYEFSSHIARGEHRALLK
T1 sequence (Q96SW2 whole entry): as the sequence (Q96SW2 whole entry) above
T1 sequence (Q16531 whole entry partner): as the sequence (Q16531 whole entry partner) above

Row | IC50 [5] | Structure (SMILES) | IKZF3 substrate protein remaining % [1] | WEE1 substrate protein remaining % [2] | IKZF2 substrate protein remaining % [3] | GSPT1 substrate protein remaining % [4] | CK1α substrate protein remaining % [6] | IKZF1 substrate protein remaining % [7]
1 | 500 to 1000 nM | O=C1CCN(N2Cc3cc(CN4CCN(C(c5ccc(F)cc5)c5ccc(F)cc5)CC4)ccc3C2=O)C(=O)N1 [GT-04894, 1-(5-((4-(bis(4-fluorophenyl)methyl)piperazin-1-yl)methyl)-1-oxoisoindolin-2-yl)dihydropyrimidine-2,4(1H,3H)-dione] | B ("B" is defined as 80%< substrate protein remaining %≤ 100%) | A ("A" is defined as 0% ≤ substrate protein remaining % ≤ 80%) | A ("A" is defined as 0% ≤ substrate protein remaining % ≤ 80%) | A ("A" is defined as 0% ≤ substrate protein remaining % ≤ 80%) | B ("B" is defined as 80%< substrate protein remaining %≤ 100%) | A ("A" is defined as 0% ≤ substrate protein remaining % ≤ 80%)
2 | 500 to 1000 nM | CC1(C)CCC(CN2CCN(Cc3ccc4c(c3)CN(N3CCC(=O)NC3=O)C4=O)CC2)=C(c2ccc(Cl)cc2)C1 [GT-04944, 1-(5-((4-((4'-chloro-5,5-dimethyl-3,4,5,6-tetrahydro-[1,1'-biphenyl]-2-yl)methyl)piperazin-1-yl)methyl)-1-oxoisoindolin-2-yl)dihydropyrimidine-2,4(1H,3H)-dione] | B ("B" is defined as 80%< substrate protein remaining %≤ 100%) | B ("B" is defined as 80%< substrate protein remaining %≤ 100%) | B ("B" is defined as 80%< substrate protein remaining %≤ 100%) | A ("A" is defined as 0% ≤ substrate protein remaining % ≤ 80%) | B ("B" is defined as 80%< substrate protein remaining %≤ 100%) | B ("B" is defined as 80%< substrate protein remaining %≤ 100%)
3 | 300 to 500 nM | O=C1CCN(N2Cc3cc(CN4CCN(c5cccc(Cl)n5)CC4)ccc3C2=O)C(=O)N1 [GT-05126, 1-(5-((4-(6-chloropyridin-2-yl)piperazin-1-yl)methyl)-1-oxoisoindolin-2-yl)dihydropyrimidine-2,4(1H,3H)-dione] | A ("A" is defined as 0% ≤ substrate protein remaining % ≤ 80%) | A ("A" is defined as 0% ≤ substrate protein remaining % ≤ 80%) | A ("A" is defined as 0% ≤ substrate protein remaining % ≤ 80%) | A ("A" is defined as 0% ≤ substrate protein remaining % ≤ 80%) | A ("A" is defined as 0% ≤ substrate protein remaining % ≤ 80%) | A ("A" is defined as 0% ≤ substrate protein remaining % ≤ 80%)
4 | 500 to 1000 nM | O=C1CCN(N2Cc3cc(CN4CCN(c5ccc(Cl)cn5)CC4)ccc3C2=O)C(=O)N1 [GT-05127, 1-(5-((4-(5-chloropyridin-2-yl)piperazin-1-yl)methyl)-1-oxoisoindolin-2-yl)dihydropyrimidine-2,4(1H,3H)-dione] | A ("A" is defined as 0% ≤ substrate protein remaining % ≤ 80%) | A ("A" is defined as 0% ≤ substrate protein remaining % ≤ 80%) | B ("B" is defined as 80%< substrate protein remaining %≤ 100%) | A ("A" is defined as 0% ≤ substrate protein remaining % ≤ 80%) | A ("A" is defined as 0% ≤ substrate protein remaining % ≤ 80%) | A ("A" is defined as 0% ≤ substrate protein remaining % ≤ 80%)
5 | 500 to 1000 nM | O=C1CCN(N2Cc3cc(CN4C[C@@H]5C[C@H]4CN5c4cccc(Cl)c4Cl)ccc3C2=O)C(=O)N1 [GT-05163, 1-(5-(((1S,4S)-5-(2,3-dichlorophenyl)-2,5-diazabicyclo[2.2.1]heptan-2-yl)methyl)-1-oxoisoindolin-2-yl)dihydropyrimidine-2,4(1H,3H)-dione] | A ("A" is defined as 0% ≤ substrate protein remaining % ≤ 80%) | B ("B" is defined as 80%< substrate protein remaining %≤ 100%) | A ("A" is defined as 0% ≤ substrate protein remaining % ≤ 80%) | A ("A" is defined as 0% ≤ substrate protein remaining % ≤ 80%) | B ("B" is defined as 80%< substrate protein remaining %≤ 100%) | A ("A" is defined as 0% ≤ substrate protein remaining % ≤ 80%)
6 | 100 to 300 nM | O=C1CCN(N2Cc3cc(CN4CC=C(c5ccnc6cc(F)ccc56)CC4)ccc3C2=O)C(=O)N1 [GT-05166, 1-(5-((4-(7-fluoroquinolin-4-yl)-3,6-dihydropyridin-1(2H)-yl)methyl)-1-oxoisoindolin-2-yl)dihydropyrimidine-2,4(1H,3H)-dione] | A ("A" is defined as 0% ≤ substrate protein remaining % ≤ 80%) | A ("A" is defined as 0% ≤ substrate protein remaining % ≤ 80%) | A ("A" is defined as 0% ≤ substrate protein remaining % ≤ 80%) | A ("A" is defined as 0% ≤ substrate protein remaining % ≤ 80%) | B ("B" is defined as 80%< substrate protein remaining %≤ 100%) | A ("A" is defined as 0% ≤ substrate protein remaining % ≤ 80%)
7 | 10 to 50 nM | Cn1cc(C2=CCN(Cc3ccc4c(c3)CN(N3CCC(=O)NC3=O)C4=O)CC2)c2ccc(F)cc21 [GT-05167, 1-(5-((4-(6-fluoro-1-methyl-1H-indol-3-yl)-3,6-dihydropyridin-1(2H)-yl)methyl)-1-oxoisoindolin-2-yl)dihydropyrimidine-2,4(1H,3H)-dione] | A ("A" is defined as 0% ≤ substrate protein remaining % ≤ 80%) | A ("A" is defined as 0% ≤ substrate protein remaining % ≤ 80%) | A ("A" is defined as 0% ≤ substrate protein remaining % ≤ 80%) | A ("A" is defined as 0% ≤ substrate protein remaining % ≤ 80%) | B ("B" is defined as 80%< substrate protein remaining %≤ 100%) | A ("A" is defined as 0% ≤ substrate protein remaining % ≤ 80%)
8 | 100 to 300 nM | O=C1CCN(N2Cc3cc(CN4CC(=C5CCOc6cc(F)ccc65)C4)ccc3C2=O)C(=O)N1 [GT-05168, 1-(5-((3-(7-fluorochroman-4-ylidene)azetidin-1-yl)methyl)-1-oxoisoindolin-2-yl)dihydropyrimidine-2,4(1H,3H)-dione] | A ("A" is defined as 0% ≤ substrate protein remaining % ≤ 80%) | B ("B" is defined as 80%< substrate protein remaining %≤ 100%) | B ("B" is defined as 80%< substrate protein remaining %≤ 100%) | A ("A" is defined as 0% ≤ substrate protein remaining % ≤ 80%) | B ("B" is defined as 80%< substrate protein remaining %≤ 100%) | B ("B" is defined as 80%< substrate protein remaining %≤ 100%)
9 | 100 to 300 nM | O=C1CCN(N2Cc3cc(CN4CC(N5CCc6cc(F)ccc65)C4)ccc3C2=O)C(=O)N1 [GT-05169, 1-(5-((3-(5-fluoroindolin-1-yl)azetidin-1-yl)methyl)-1-oxoisoindolin-2-yl)dihydropyrimidine-2,4(1H,3H)-dione] | A ("A" is defined as 0% ≤ substrate protein remaining % ≤ 80%) | B ("B" is defined as 80%< substrate protein remaining %≤ 100%) | A ("A" is defined as 0% ≤ substrate protein remaining % ≤ 80%) | A ("A" is defined as 0% ≤ substrate protein remaining % ≤ 80%) | B ("B" is defined as 80%< substrate protein remaining %≤ 100%) | B ("B" is defined as 80%< substrate protein remaining %≤ 100%)

Row | Structure (SMILES) | IC50 [5] | IKZF3 substrate protein remaining % [1] | WEE1 substrate protein remaining % [2] | IKZF2 substrate protein remaining % [3] | GSPT1 substrate protein remaining % [4] | CK1α substrate protein remaining % [6] | IKZF1 substrate protein remaining % [7]
10 | O=C1CCN(N2Cc3cc(CN4CCC(c5c[nH]c6cc(F)ccc56)CC4)ccc3C2=O)C(=O)N1 [GT-05164, 1-(5-((4-(6-fluoro-1H-indol-3-yl)piperidin-1-yl)methyl)-1-oxoisoindolin-2-yl)dihydropyrimidine-2,4(1H,3H)-dione] | 100 to 300 nM | B ("B" is defined as 80%< substrate protein remaining %≤ 100%) | B ("B" is defined as 80%< substrate protein remaining %≤ 100%) | A ("A" is defined as 0% ≤ substrate protein remaining % ≤ 80%) | A ("A" is defined as 0% ≤ substrate protein remaining % ≤ 80%) | B ("B" is defined as 80%< substrate protein remaining %≤ 100%) | A ("A" is defined as 0% ≤ substrate protein remaining % ≤ 80%)
11 | O=C1CCN(N2Cc3cc(CN4CCC(N5CCc6cc(F)ccc65)CC4)ccc3C2=O)C(=O)N1 [GT-05165, 1-(5-((4-(5-fluoroindolin-1-yl)piperidin-1-yl)methyl)-1-oxoisoindolin-2-yl)dihydropyrimidine-2,4(1H,3H)-dione] | 500 to 1000 nM | B ("B" is defined as 80%< substrate protein remaining %≤ 100%) | B ("B" is defined as 80%< substrate protein remaining %≤ 100%) | A ("A" is defined as 0% ≤ substrate protein remaining % ≤ 80%) | A ("A" is defined as 0% ≤ substrate protein remaining % ≤ 80%) | B ("B" is defined as 80%< substrate protein remaining %≤ 100%) | B ("B" is defined as 80%< substrate protein remaining %≤ 100%)

Source: EP4722207A1, “OXOISOINDOLINYL-SUBSTITUTED TETRAHYDROPYRIMIDINEDIONE DERIVATIVE AND USE THEREOF” (Gluetacs Therapeutics (Shanghai) Co., Ltd., priority 2023, dated 2024)
